According to ChEMBL document CHEMBL1130333, “On the mechanism of chorismate mutases: Revisiting structural requirements for catalysis” (Bioorg Med Chem Lett, 1997):

Tests used:
[1] = Rearrangement half-life at pH of 7.8 was determined; assay type: ADME; settings: pH 7.8
[2] = The compound was tested for inhibition of Bacillus subtilis chorismate mutase (BcCM); weak competitive inhibitor
[3] = Rearrangement half-life at pH of 7.4 was determined; assay type: ADME; settings: pH 7.4

half-life [1]: 3.1 h | Ki [2]: 500 µM | half-life [3]: 1.7 h
Structure (SMILES): C=C(O[C@@H]1C=CC=C[C@H]1O)C(=O)[O-].[Na+]
